Patent US5296591A, “Trifluoromethylketone derivatives, processes for preparation thereof and use thereof” (Fujisawa Pharmaceutical Co., Ltd., priority 1990, dated 1994)

Experiments:
[1] = system: human sputum elastase induced paw edema in C57BL mice; experiment: Human sputum elastase induced paw edema in mice; type: in vivo, mouse; conditions: for Thickness of footpad: 15 min before HSE 20 μg/site, 2 h after HSE
Protocol: Male C57BL mice at the age of 7-8 weeks were obtained from Japan Clear Inc,.
Human sputum elastase (HSE) was purchased from Elastin Products Company, Inc,. The test drug was administered subcutaneously, and 15 minutes later, HSE was injected into the right hind footpad at the dosage of 20 μg/site, and saline into the left hind footpad as the control. After 2 hours of HSE injection, the paw edema was measured with the dial thickness gage, and the difference of the thickness between right and left hind footpads was calculated.

[2] = system: PPE-induced emphysema in golden Syrian hamsters; experiment: Experimentally (porcine pancreatic elastase) induced emphysema in hamsters; type: in vivo, hamster; conditions: for Cst (quasi static lung compliance) / VC (vital capacity): 3 weeks after PPE
Protocol: Male golden Syrian hamsters, weighing approximately 120 g, were obtained from Japan SLC Inc,.
Porcine pancreatic elastase (PPE) was purchased from Elastin Products Company, Inc,. Dialferin was purchased from Japan Roche Inc,.
Hamsters were anesthetized intraperitoneally with Pentobarbital. The compound of Example 19 was dissolved in saline. Both prior art compounds A and B were suspended in 0.5% methyl cellulose. The drugs were instilled intratracheally through the oral cavity, 5 minutes before 100 μg/site of PPE in 0.2 ml of saline instillation. Three weeks after PPE instillation, the hamsters were anesthetized with Pentobarbital. Respiratory mechanics were studied in supine hamsters using a whole body, constant-volume, variable pressure plethysmograph to measue volume. A water-filled esophageal catheter was used to estimate pleural pressure. Quasi-static deflation pressure-volume (P-V) curves were obtained by intraperitoneally administered Dialferin to suppress spontaneous breathing inflating the lungs to a transpulmonary pressure (PL) of 30 cm H2 O, permitting slow deflation to a PL of 0 cm H2 O and gently aspirating to a PL of -20 cm H2 O . Quasi-static lung compliance (Cst) was defined as the slope of the steep portion of the deflation P-V curve in the mid-volume range. Vital capacity was defined as the difference in lung volume between TLC25 (volume at PL=25 cm H2 O) and RV-20 (volume at PL=-20 cm H2 O).

[3] = target: T1, porcine pancreas elastase (Type IV) (Sus scrofa, UniProt P00772); experiment: Protease inhibition assay (in vitro), porcine pancreas elastase; type: biochemical; conditions: IC50 Porcine pancreas elastase, substrate N-succinyl-(Ala)3-p-nitroanilide, enzyme 5 μg/ml final
T1 construct: purchased Sigma Chemicals Co; host or cells: porcine pancreas (from the enzyme's name)
T1 sequence (P00772 27-266): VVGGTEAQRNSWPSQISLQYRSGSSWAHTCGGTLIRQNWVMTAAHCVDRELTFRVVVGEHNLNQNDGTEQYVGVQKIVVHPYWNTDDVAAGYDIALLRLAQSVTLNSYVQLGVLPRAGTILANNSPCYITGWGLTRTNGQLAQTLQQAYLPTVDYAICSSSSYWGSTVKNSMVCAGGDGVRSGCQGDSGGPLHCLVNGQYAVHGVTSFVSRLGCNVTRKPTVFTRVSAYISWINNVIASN
Protocol: (§1) A buffer used throughout the assay was 0.1M HEPES (4-(2-hydroxyethyl)-1-piperazineethanesulfonic acid) containing 0.5M NaCl, pH 7.5. Twenty-five microliters of 2 mM methoxysuccinyl-(Ala)2 -Pro-Val-p-nitroanilide (100 mM of dimethyl sulfoxide solution were diluted in the buffer) and 50 μl of sample (10 μl of sample in organic solvent was diluted 5-fold in the buffer) were mixed in wells of 96 well-microliter plate. An absorbance of the mixture in wavelength at 415 nm was measured by a microplate reader (Corona Electric Co., Ibaraki, Japan). After the measurement, 25 μl of 6 μg/ml human sputum elastase (HSE) was added and the mixture was allowed to stand for 30 minutes at room temperature. Then, the absorbance at 415 nm was measured. Percent inhibition by drug was determined by 100×(1-"r" inhibitor present/"r" inhibitor absent), where "r" is absorbance after 30 minutes incubation minus absorbance before enzyme addition. Effect of inhibitors against porcine pancreas elastase (Type IV, 5 μg/ml final) was assayed similarly using N-succinyl-(Ala)3 -p-nitroanilide. HSE was obtained from Elastin Products Company Inc., Mo., U.S.A. All other substrates and protease were purchased from Sigma Chemicals Co.

[4] = target: T2, human sputum elastase (HSE) (Homo sapiens, UniProt P08246); experiment: Protease inhibition assay (in vitro), human sputum elastase; type: biochemical; conditions: substrate methoxysuccinyl-(Ala)2-Pro-Val-p-nitroanilide, 30 min, room temperature, pH 7.5
T2 construct: HSE was obtained from Elastin Products Company Inc., Mo., U.S.A; purchased Elastin Products Company Inc; host or cells: human sputum (from the enzyme's name)
T2 sequence (P08246 30-267): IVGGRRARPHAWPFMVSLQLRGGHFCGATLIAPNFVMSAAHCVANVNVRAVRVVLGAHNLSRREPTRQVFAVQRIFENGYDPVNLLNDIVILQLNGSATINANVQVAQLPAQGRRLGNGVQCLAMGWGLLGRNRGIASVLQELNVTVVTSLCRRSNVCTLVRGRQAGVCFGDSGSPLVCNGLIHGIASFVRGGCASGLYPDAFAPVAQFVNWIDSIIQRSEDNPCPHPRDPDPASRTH
Protocol: as §1

[5] = system: human sputum elastase-induced lung hemorrhage in hamsters; experiment: Elastase-induced pulmonary damage (lung hemorrhage) in hamsters; type: in vivo, hamster; conditions: 5 min predose; for Hemorrhage (OD541 nm): BAL hemoglobin 3 h after elastase
Protocol: Hamsters under pentobarbital anesthesia were used. Saline or saline-containing human sputum elastase was instilled intratracheally via a small incision in the ventral neck region using 1-ml syringe with a 27-gauge needle. After 3 hours, animals were sacrificed by CO2 asphyxiation, each animal's trachea was reexposed. The lungs were then laveged using a 2.5-ml aliquot of saline and then withdrawing the saline, yielding a final volume of approximately 1.5 ml bronchoalveolar lavage (BAC) fluid from each animal.
The cells of BAL fluid were collected by centrifugation and were then diluted with distilled water to disrupt, and the hemoglobin contents determined spectrophotometrically at 541 nm.
Test drugs were dissolved in saline or methyl cellulose, and instilled intratracheally in the same manner as used to instill elastase, at 5 minutes before instillation of elastase.

[6] = 1 μg/site intratracheal 5 min before PPE 100 μg/site
[7] = 10 μg/site intratracheal 5 min before PPE 100 μg/site
[8] = 100 μg/site intratracheal 5 min before PPE 100 μg/site

SMILES: CC(C)C(NC(=O)[C@@H]1CCCN1C(=O)[C@@H](NC(=O)c1ccc(C(=O)NCC(=O)O)cc1)C(C)C)C(=O)C(F)(F)F (mixture of isomers) [Example 19, 3(RS)-[[4-(carboxymethylaminocarbonyl)phenylcarbonyl]-L-valyl-L-prolyl]amino-1,1,1-trifluoro-4-methyl-2-oxopentane]
- % Inhibition of paw edema ([1]; 1 mg/kg subcutaneous): 6.4%
- Thickness of footpad ([1]; 1 mg/kg subcutaneous): 43.8 ± 5.67 × 10^-2 mm
- % Inhibition of paw edema ([1]; 10 mg/kg subcutaneous): 20.9%
- Thickness of footpad ([1]; 10 mg/kg subcutaneous): 37.0 ± 13.41 × 10^-2 mm
- % Inhibition of paw edema ([1]; 100 mg/kg subcutaneous): 42.3%
- Thickness of footpad ([1]; 100 mg/kg subcutaneous): 27.0 ± 4.66 × 10^-2 mm
- Cst (%) Inhibition ([2]; 1 μg/site intratracheal): 15%
- VC (%) Inhibition ([2]; 1 μg/site intratracheal): 12%
- Cst (quasi static lung compliance) [2, 6]: 1.39 ± 0.05 ml/cmH2 O
- VC (vital capacity) [2, 6]: 7.0 ± 0.1 mL
- Cst (%) Inhibition ([2]; 10 μg/site intratracheal): 84%
- VC (%) Inhibition ([2]; 10 μg/site intratracheal): 65%
- Cst (quasi static lung compliance) [2, 7]: 0.70 ± 0.04 ml/cmH2 O
- VC (vital capacity) [2, 7]: 5.8 ± 0.1 mL
- Cst (%) Inhibition ([2]; 100 μg/site intratracheal): 100%
- VC (%) Inhibition ([2]; 100 μg/site intratracheal): 97%
- Cst (quasi static lung compliance) [2, 8]: 0.53 ± 0.02 ml/cmH2 O
- VC (vital capacity) [2, 8]: 5.0 ± 0.1 mL
- Potency compared with prior art compounds, considering Cst and VC values (in words) ([2]; hamster, in vivo): superior to the prior art compounds A and B
- Effect of pretreatment on PPE-induced increases in lung mechanics (in words) ([2]; intratracheal pretreatment, 1-100 μg/site): prevented the development of PPE-induced increases in lung mechanics in a dose dependent manner
- IC50 [3]: 3000 nM
- IC50 [4]: 680 nM
- % inhibition of elastase-induced lung hemorrhage ([5]; 1 μg/site intratracheal): 10.8%
- Hemorrhage (OD541 nm) ([5]; 1 μg/site intratracheal): 11.59 ± 1.40 OD541 nm
- % inhibition of elastase-induced lung hemorrhage ([5]; 10 μg/site intratracheal): 93.1%
- Hemorrhage (OD541 nm) ([5]; 10 μg/site intratracheal): 1.663 ± 0.690 OD541 nm
- % inhibition of elastase-induced lung hemorrhage ([5]; 100 μg/site intratracheal): 105.2%
- Hemorrhage (OD541 nm) ([5]; 100 μg/site intratracheal): 0.2141 ± 0.020 OD541 nm
- ED50 elastase-induced lung hemorrhage ([5]; intratracheal): 2.4 μg/site
